# From article PMC7921015, “Spatiotemporal GLP-1 and GIP receptor signaling and trafficking/recycling dynamics induced by selected receptor mono- and dual-agonists” (Molecular Metabolism, 2021)
# How the values were obtained:
# human GIPR [1] = molecular target: T1, human GIPR (Homo sapiens, UniProt P48546); experiment: Gαs (mini-G) recruitment BRET assay, GIPR; assay type: cell-based; settings: HEK293T, GIPR-GFP + NLuc-mini-G, +iAUC 60 min
# T1 sequence (P48546 22-466): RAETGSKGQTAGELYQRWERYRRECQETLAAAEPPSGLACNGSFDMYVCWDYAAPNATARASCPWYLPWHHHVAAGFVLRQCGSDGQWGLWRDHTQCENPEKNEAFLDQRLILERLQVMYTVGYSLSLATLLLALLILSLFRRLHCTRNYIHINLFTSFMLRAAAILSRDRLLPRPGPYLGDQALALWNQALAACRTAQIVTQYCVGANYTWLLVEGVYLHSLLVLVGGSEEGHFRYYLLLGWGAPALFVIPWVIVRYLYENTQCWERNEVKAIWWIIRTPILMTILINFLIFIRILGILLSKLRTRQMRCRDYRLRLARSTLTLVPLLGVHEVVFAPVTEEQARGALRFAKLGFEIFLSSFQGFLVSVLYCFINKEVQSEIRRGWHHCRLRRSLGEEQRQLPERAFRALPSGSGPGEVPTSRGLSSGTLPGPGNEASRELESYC
# human GIPR [2] = molecular target: T1, human GIPR; experiment: cAMP assay (CAMYEL BRET sensor), GIPR; assay type: cell-based; settings: HEK293T, GIPR, CAMYEL sensor, no IBMX, +iAUC 25 min
# Procedure: (§1) The cells were seeded (700,000 cells/well) in 6-well plates and incubated to ∼70% confluency in complete media supplemented with 10% FBS and 1% Pen-Strep. […] Baseline measurements were taken after 5 min of incubation with coelenterazine-h or NanoGlo. The cells were then treated with a vehicle or the respective agonists. […] The temporal data of the vehicle-corrected agonist measurement was then normalized to the baseline reading of the same well. The first BRET reading following treatment with agonist/vehicle was the subsequent measurement after the zero time point. Positive or negative incremental areas under the curves (+iAUC/-iAUC) were calculated where noted. Each experiment was independently performed at least three times, with at least two technical replicates for each group.
# (§2) CAMYEL, a cAMP sensor using YFP-Epac-RLuc was utilized to quantify cAMP accumulation with the temporal resolution. Then, 500 ng of CAMYEL DNA was co-transfected with 500 ng of DNA of untagged GLP-1R or GIPR per well in a 6-well plate. The experiments were performed in the absence of 3-isobutyl-1-methylxanthine (IBMX).
# (§3) Data are represented as means ± S.E.M. Each experiment was independently conducted at least three times, each with at least two technical replicates. […] Dose responses were fitted using non-linear regression. pEC50 and EC50 values were calculated using GraphPad Prism 8.0 (GraphPad, San Diego, CA, USA). Statistical analyses were calculated in GraphPad 8.0 using one-way analysis of variance (ANOVA) and corrected with Tukey's or Bonferroni's multiple comparison test. Differences are considered significant with an adjusted p value < 0.05.
# human GLP-1R [3] = molecular target: T2, human GLP-1R (Homo sapiens, UniProt P43220); experiment: GPCR internalization assay (loss of BRET with Venus-KRAS), GLP-1R; assay type: cell-based; settings: HEK293T, hGLP-1R-Rluc8 + Venus-KRAS, iAUC 60 min
# T2 construct: host or cells: HEK293T
# T2 sequence (P43220 24-463): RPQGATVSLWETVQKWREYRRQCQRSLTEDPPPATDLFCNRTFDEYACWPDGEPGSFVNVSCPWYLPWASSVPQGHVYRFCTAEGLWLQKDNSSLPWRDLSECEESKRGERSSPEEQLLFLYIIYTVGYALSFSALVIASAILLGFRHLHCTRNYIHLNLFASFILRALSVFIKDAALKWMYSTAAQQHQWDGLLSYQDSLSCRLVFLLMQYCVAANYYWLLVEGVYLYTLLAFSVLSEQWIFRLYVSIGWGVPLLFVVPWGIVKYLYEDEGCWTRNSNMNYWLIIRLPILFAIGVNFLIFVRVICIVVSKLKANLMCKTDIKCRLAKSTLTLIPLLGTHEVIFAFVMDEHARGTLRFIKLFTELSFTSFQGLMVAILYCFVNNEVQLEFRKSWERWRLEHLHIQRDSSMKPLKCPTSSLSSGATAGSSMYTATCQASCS
# human GLP-1R [4] = molecular target: T2, human GLP-1R; experiment: Gαq (mini-G) recruitment BRET assay, GLP-1R; assay type: cell-based; settings: HEK293T, GLP-1R-GFP + NLuc-mini-G, +iAUC 60 min
# human GLP-1R [5] = molecular target: T2, human GLP-1R; experiment: β-arrestin 2 recruitment BRET assay, GLP-1R; assay type: cell-based; settings: HEK293T, GLP-1R-GFP + β-arrestin2-RLUC8, BRET, +iAUC 30 min
# Procedure: as §1
# (§4) Co-localization of β-arrestin1/2-RLUC8 with GLP-1R-GFP or GIPR-GFP was assessed.
# as §3, with “Differences are considered significant with an adjusted p value < 0.05.” left out
# human GLP-1R [6] = molecular target: T2, human GLP-1R; experiment: β-arrestin 1 recruitment BRET assay, GLP-1R; assay type: cell-based; settings: HEK293T, GLP-1R-GFP + β-arrestin1-RLUC8, BRET, +iAUC 30 min
# Procedure: as §1, §4
# as §3, with “Differences are considered significant with an adjusted p value < 0.05.” left out
# human GIPR [7] = molecular target: T1, human GIPR; experiment: β-arrestin 1 recruitment BRET assay, GIPR; assay type: cell-based; settings: HEK293T, GIPR-GFP + β-arrestin1-RLUC8, BRET, +iAUC 30 min
# Procedure: as §1, §4, §3
# human GLP-1R [8] = molecular target: T2, human GLP-1R; experiment: cAMP assay (CAMYEL BRET sensor), GLP-1R; assay type: cell-based; settings: CAMYEL sensor, no IBMX, mean ± SEM, at least 3 experiments, SEM
# Procedure: as §1, §2, §3
# human GIPR [9] = molecular target: T1, human GIPR; experiment: GPCR internalization assay (loss of BRET with Venus-KRAS), GIPR; assay type: cell-based; settings: HEK293T, hGIPR-Rluc8 + Venus-KRAS, iAUC 20 min
# human GLP-1R [10] = molecular target: T2, human GLP-1R; experiment: Gαs (mini-G) recruitment BRET assay, GLP-1R; assay type: cell-based; settings: HEK293T, GLP-1R-GFP + NLuc-mini-G, +iAUC 60 min
# human GIPR [11] = molecular target: T1, human GIPR; experiment: β-arrestin 2 recruitment BRET assay, GIPR; assay type: cell-based; settings: HEK293T, GIPR-GFP + β-arrestin2-RLUC8, BRET, +iAUC 30 min
# Procedure: as §1, §4, §3
# human GIPR [12] = molecular target: T1, human GIPR; experiment: Gαq (mini-G) recruitment BRET assay, GIPR; assay type: cell-based; settings: HEK293T, GIPR-GFP + NLuc-mini-G, +iAUC 60 min
# [13] = molecular target: Human GIPR-turbo GFP (human) (UniProt P48546)
# [14] = molecular target: Human GIPR-turbo GFP (human) (UniProt P48546); remark: listed apart in the source
# Human GLP-1R-GFP (human) [15] = molecular target: Human GLP-1R-GFP (human) (UniProt P43220)
# Human GLP-1R-GFP (human), sequence (P43220 24-463): as above
# Human GLP-1R-GFP (human) [16] = molecular target: Human GLP-1R-GFP (human) (UniProt P43220); remark: listed apart in the source
# [17] = read-out: Receptor Internalization EC50
# [18] = HEK-293T, mean ± SEM, at least 3 experiments, SEM
# [19] = read-out: β-arr2 Recruitment EC50
# [20] = read-out: β-arr1 Recruitment EC50
compound,measurement,setting,value
CCCCCCCCCCCCCCCC(=O)NCCCC[C@H](NC(=O)[C@H](CO)NC(=O)[C@@H]1CCCN1C(=O)[C@@H]1CCCN1C(=O)[C@@H]1CCCN1C(=O)[C@H](C)NC(=O)CNC(=O)[C@H](CO)NC(=O)[C@H](CO)NC(=O)[C@@H]1CCCN1C(=O)CNC(=O)CNC(=O)[C@H](C)NC(=O)[C@H](CC(C)C)NC(=O)[C@H](CC(C)C)NC(=O)[C@H](Cc1c[nH]c2ccccc12)NC(=O)[C@H](CC(N)=O)NC(=O)[C@@H](NC(=O)[C@H](Cc1ccccc1)NC(=O)[C@H](CCC(=O)O)NC(=O)C(C)(C)NC(=O)[C@H](C)NC(=O)[C@H](C)NC(=O)[C@H](CCC(N)=O)NC(=O)[C@H](CCCCN)NC(=O)[C@H](CC(=O)O)NC(=O)[C@H](CC(C)C)NC(=O)[C@H](Cc1ccc(O)cc1)NC(=O)[C@@H](NC(=O)[C@H](CO)NC(=O)[C@@H](NC(=O)[C@H](CC(=O)O)NC(=O)[C@H](CO)NC(=O)[C@@H](NC(=O)[C@H](Cc1ccccc1)NC(=O)[C@@H](NC(=O)CNC(=O)[C@H](CCC(=O)O)NC(=O)C(C)(C)NC(=O)[C@@H](N)Cc1c[nH]cn1)[C@@H](C)O)[C@@H](C)O)C(C)C)[C@@H](C)CC)C(C)C)C(N)=O [fatty acyl-GLP-1],EC50,"human GIPR [1]; mean ± SEM, read-out: Gαs Recruitment pEC50 (converted)",> 1000 nM
same,EC50,human GIPR [1]; read-out: Gαs Recruitment EC50,> 1000 nM
same,EC50,"human GIPR [2]; mean ± SEM, read-out: cAMP pEC50 (converted)",> 1000 nM
same,EC50,human GIPR [2]; read-out: cAMP EC50,> 1000 nM
same,EC50,human GLP-1R [3]; [17],490 nM
same,Emax,"human GLP-1R [3]; HEK-293T, mean ± SEM, at least 3 experiments, SEM, read-out: Receptor Internalization Emax (% GLP-1)",108 ± 4%
same,EC50,human GLP-1R [4],305 nM
same,Emax,human GLP-1R [4]; [18],101 ± 5%
same,EC50,human GLP-1R [5]; [19],188 nM
same,Emax,"human GLP-1R [5]; HEK-293T, mean ± SEM, at least 3 experiments, SEM, read-out: β-arr2 Recruitment Emax (% GLP-1)",86 ± 3%
same,EC50,human GLP-1R [6]; [20],358 nM
same,Emax,"human GLP-1R [6]; HEK-293T, mean ± SEM, at least 3 experiments, SEM, read-out: β-arr1 Recruitment Emax (% GLP-1)",88 ± 4%
same,EC50,human GIPR [7]; [20],> 1000 nM
same,EC50,human GIPR [7]; read-out: β-arr1 Recruitment pEC50 (converted),> 1000 nM
same,EC50,"human GLP-1R [8]; HEK293T, GLP-1R, +iAUC 25 min, read-out: cAMP pEC50 (converted)",0.363 nM
same,Emax,"human GLP-1R [8]; HEK-293T, HEK293T transiently expressing untagged GLP-1R, +iAUC of 25 min response, 3-parameter fit",99 ± 3%
same,EC50,"human GIPR [9]; mean ± SEM, read-out: Receptor Internalization pEC50 (converted)",> 1000 nM
same,EC50,human GIPR [9]; [17],> 1000 nM
same,EC50,human GLP-1R [10],423 nM
same,Emax,human GLP-1R [10]; [18],98 ± 5%
same,EC50,"human GIPR [11]; mean ± SEM, read-out: β-arr2 Recruitment pEC50 (converted)",> 1000 nM
same,EC50,human GIPR [11]; [19],> 1000 nM
same,EC50,"human GIPR [12]; mean ± SEM, read-out: Gαq Recruitment pEC50 (converted)",> 1000 nM
same,EC50,human GIPR [12]; read-out: Gαq Recruitment EC50,> 1000 nM
MAR709 (peptide),"GIPR internalization Emax, % of GIP (1–42) (loss of BRET between hGIPR-Rluc8 and Venus-KRAS, HEK293T)",[13],4%
same,"GIPR co-localization with Rab5^+ endosomes (BRET of hGIPR-Rluc8 with Venus-Rab5, HEK293T), % of the response to GIP (1–42), fatty acyl-GIP and tirzepatide",[14],66%
same,"GLP-1R co-localization with Rab5 early endosomes (BRET of hGLP-1R-Rluc8 with Venus-Rab5, HEK293T), 1 μM, % of GLP-1 (7–36 amide)",Human GLP-1R-GFP (human) [15],68%
same,"GLP-1R co-localization with Rab7 late endosomes (BRET of hGLP-1R-Rluc8 with Venus-Rab7, HEK293T), % of GLP-1 (7–36 amide)",Human GLP-1R-GFP (human) [15],62%
same,"GLP-1R internalization Emax, % of GLP-1 (7–36 amide) (loss of BRET between hGLP-1R-Rluc8 and Venus-KRAS, HEK293T)",Human GLP-1R-GFP (human) [16],51%
